The conditions of data set [1]: background art; cited from earlier work.
A short description of data set [2]: Kinetics analysis of interaction between streptavidin protein and biotin using Biacore biosensor. The class given is binding. As to conditions: for Kd: Biacore 3000, obtained from kd/ka, read-out: Dissociation constant Kd. As for the experimental part:
As a ligand (a substance to be attached to a sensor chip) used for a Biacore (registered trademark) biosensor, an anti-mouse IgG antibody (manufactured by GE Healthcare Biosciences) was used. On the other hand, as analytes (substances to be supplied to the flow channel system), a biotinylated mouse antibody and various types of mutant streptavidins were prepared, and intermolecular interaction was then analyzed using Biacore (registered trademark) 3000 (a biosensor based on the principle of surface plasmon resonance; manufactured by GE Healthcare Biosciences). The anti-mouse IgG antibody was immobilized on all of the flow cells of a CM5 sensor chip according to an amine coupling method. The amount of the antibody immobilized on each flow cell was 8000 RU. Subsequently, as references, non-biotinylated mouse antibodies were captured onto Flow Cells 1 and 3, and biotinylated mouse antibodies were captured onto Flow Cells 2 and 4. Various types of streptavidins were loaded in a running buffer (HBS-EP; manufactured by GE Healthcare Biosciences) on Flow Cells 1 and 2, or 3 and 4, at a flow rate of 20 μl/min for 2 minutes. Thereafter, dissociation of each sample was monitored for 7 minutes. Thereafter, a reproduction operation was carried out using a 10 mM glycine-HCl buffer (pH 1.7) (manufactured by GE Healthcare Biosciences), and repeat measurement was then carried out. Using the analysis software BIAevaluation ver. 4.1, a reaction kinetics analysis was performed on a 1:1 binding model based on the obtained sensorgram, so as to calculate an association rate constant (ka) and a dissociation rate constant (kd). A dissociation constant (Kd) was obtained from kd/ka.
The results of the kinetics analysis of the intermolecular interaction of a recombinant streptavidin and a biotin, which was carried out using Biacore (registered trademark) 3000 (a biosensor based on the principle of surface plasmon resonance; manufactured by GE Healthcare Biosciences), are as shown in Table 2.

The mark [3] stands for this setting: Biacore 3000, biotinylated mouse antibody captured, 1:1 binding model.

One may read the Kd as a measure of binding affinity in units of concentration.

“Avidin: basic glycoprotein derived from albumen”: the isoelectric point result in data set [1] is reported as “exceeds 10”.

As for “cSA_WT: wild-type (native) core streptavidin, amino acid sequence SEQ ID NO: 2 [reference compound]”, in data set [2] (setting [3]), the “Association rate constant ka” value was 2.81 × 10^5 M^−1 S^−1 and the “Dissociation rate constant kd” value is recorded as 6.32 × 10^−5 S^−1. The Kd in data set [2] was 0.225 nM. Also, the isoelectric point result in data set [1] was “around the neutral range”.

Take “mcSA_W120A: streptavidin mutant named W120A in Table 2; not described further [reference compound]”: in data set [2] (setting [3]), the “Dissociation rate constant kd” value was 7.49 × 10^−4 S^−1. In addition, the Kd in data set [2] is 3.53 nM.

These data come from US8546537B2, “Streptavidin having low immunogenicity and use thereof” (The University of Tokyo, priority 2009, dated 2013).
